Test results: publication PMC3166071, “Ancient Antimicrobial Peptides Kill Antibiotic-Resistant Pathogens: Australian Mammals Provide New Options” (PLoS ONE, 2011)
Values after ≈ are worked out from the molar mass of the structure shown. Where two headings read alike, the source gives them in different places. Where no end group is shown, it is not given here.

Experiments:
human red blood cells = assay type: cell-based
Procedure: Figure 4 Toxicity of WAM1 on human red blood cells. Haemolytic activity was determined by treating human red blood cells with different concentrations of WAM1 and haemoglobin release measured by absorbance at 450 nm. Samples were incubated at 37°C for 1 hour. PBS and 1% Tween-20 were used as negative and positive controls, representing 0% and 100% hemolytic activity respectively.

P. aeruginosa = assay type: cell-based, Pseudomonas aeruginosa; details: 3 h
Procedure: (§1) Peptides were synthesized and HPLC purified (AusPep Pty Ltd). The two-stage radial diffusion assay used in this study has been described elsewhere. Briefly, ∼4×10^6 of mid-logarithmic-phase organisms were mixed into 10 ml of warm 0.8% agarose containing 0.03% (w/v) Trypticase soy broth (TSB) powder buffered with 10 mM sodium phosphate, pH 7.4. The synthetic peptides were serially diluted in 0.01% acetic acid and 5 µl peptide samples were loaded in 2.5 mm diameter wells. The plates were covered, and incubated at 37°C. After 3 hours, a 10 ml overlay gel composed of 6% TSB, 0.8% agarose in 10 mM sodium phosphate buffer (pH 7.4) was poured onto the plates. The plates were incubated overnight to allow the surviving organisms to form microcolonies. The clear zone was measured using a magnified transilluminator and expressed in units (1 mm = 10 U) after subtracting the well diameter. The MIC is defined by the χ intercept of a regression line through zone diameters obtained from a series of serially diluted peptide samples. For multidrug-resistant bacteria, MICs were measured as described by micro-broth dilution in Mueller-Hinton broth (Oxoid, Hampshire, England) according to according to Clinical and Laboratory Standards Institute (CLSI) standards. The MIC measurements were performed in duplicate and the data incorporated into a final MIC using standard methods. All the bacterial strains were tested on at least two different occasions. Mid-logarithmic phase cultures of P. aeruginosa 19056 muc were diluted in Mueller–Hinton broth to yield approximately 10^6 cfu/ml. Peptides were added at the indicated concentrations and the suspensions were then incubated for different times in a shaking water bath at 35°C. At the end of each incubation time, the samples were serially diluted in buffered saline and plated onto nutrient agar with a spiral plater (Don Whitley Scientific, Australia). Colonies were counted after 17–22 h incubation at 35°C using an automatic colony counter (Don Whitley Scientific, Australia).

[1] = tested on: P. aeruginosa (ATCC 27853); assay type: cell-based, Pseudomonas aeruginosa; details: ATCC 27853, 3 h, pH 7.4
Procedure: as §1

A. baumannii = assay type: cell-based, Acinetobacter baumannii; details: 3 h
Procedure: as §1

B. subtilis = assay type: cell-based, Bacillus subtilis
Procedure: as §1

S. aureus (ATCC 25923) = assay type: cell-based, Staphylococcus aureus; details: ATCC 25923, 3 h, pH 7.4
Procedure: as §1

C. albicans (ATCC 753) = assay type: cell-based, Candida albicans
Procedure: as §1

E. coli DH5α = assay: microbe, parasite or virus in culture; assay type: cell-based, Escherichia coli; details: for Relative potency of WAM1: against E. coli, WAM1 relative to the antibiotic of the line
Procedure: as §1

[2] = tested on: Sal. enterica (ATCC 14028); assay type: cell-based
Procedure: as §1

[3] = tested on: Strep. pyogenes (ATCC 19615); assay type: cell-based
Procedure: as §1

K. pneumoniae [4] = assay type: cell-based, Klebsiella pneumoniae; details: 3 h
Procedure: as §1

K. pneumoniae [5] = assay type: cell-based, Klebsiella pneumoniae; details: 3 h; remark: listed apart in the source
Procedure: Figure 3 Time course of K. pneumoniae killing by WAM1 in broth. Time marked in minutes. […] Antimicrobial assays were performed as described previously.
Peptides were synthesized and HPLC purified (AusPep Pty Ltd). The two-stage radial diffusion assay used in this study has been described elsewhere. Briefly, ∼4×10^6 of mid-logarithmic-phase organisms were mixed into 10 ml of warm 0.8% agarose containing 0.03% (w/v) Trypticase soy broth (TSB) powder buffered with 10 mM sodium phosphate, pH 7.4. The synthetic peptides were serially diluted in 0.01% acetic acid and 5 µl peptide samples were loaded in 2.5 mm diameter wells. The plates were covered, and incubated at 37°C. After 3 hours, a 10 ml overlay gel composed of 6% TSB, 0.8% agarose in 10 mM sodium phosphate buffer (pH 7.4) was poured onto the plates. The plates were incubated overnight to allow the surviving organisms to form microcolonies. The clear zone was measured using a magnified transilluminator and expressed in units (1 mm = 10 U) after subtracting the well diameter. […] For multidrug-resistant bacteria, MICs were measured as described by micro-broth dilution in Mueller-Hinton broth (Oxoid, Hampshire, England) according to according to Clinical and Laboratory Standards Institute (CLSI) standards. […] Colonies were counted after 17–22 h incubation at 35°C using an automatic colony counter (Don Whitley Scientific, Australia).

Strep. uberis = assay type: cell-based, Streptococcus uberis
Procedure: as §1

[6] = DH5α, 3 h, pH 7.4, read-out: MIC
[7] = Escherichia coli, Table 2, against E. coli, comparison of WAM1 with antibiotics, read-out: MIC

| Compound | MIC [1] [µM] | MIC (B. subtilis; 3 h, pH 7.4) [µM] | MIC (S. aureus (ATCC 25923)) [µM] | MIC (C. albicans (ATCC 753); ATCC 753, 3 h, pH 7.4) [µM] | MIC (E. coli DH5α; [6]) [µM] | MIC ([2]; ATCC 14028, 3 h, pH 7.4) [µM] | MIC ([3]; ATCC 19615, 3 h, pH 7.4) [µM] | MIC (Strep. uberis; 3 h, pH 7.4) [µM] | Relative potency of WAM1 (E. coli DH5α) [x] | also measured |
| --- | --- | --- | --- | --- | --- | --- | --- | --- | --- | --- |
| KRGFGKKLRKRLKKFRNSIKKRLKNFNVVIPIPLPG [WAM1] | 0.77 | 1.50 | 1.01 | 1.30 | 0.47 | 1.14 | 0.66 | 1.22 |  | Haemolytic activity against human red blood cells (human red blood cells): not hemolytic; MIC 0 mM NaCl (P. aeruginosa): 0.9 µM; MIC 150 mM NaCl (P. aeruginosa): 0.9 µM; MIC 200 mM NaCl (P. aeruginosa): 0.9 µM; MIC 0 mM NaCl (A. baumannii): 1.9 µM; MIC 150 mM NaCl (A. baumannii): 1.9 µM; MIC 200 mM NaCl (A. baumannii): 3.8 µM; MIC (E. coli DH5α; DH5α, 3 h, read-out: MIC): 0.47 µM; MIC 0 mM NaCl (K. pneumoniae [4]): 0.5 µM; MIC 150 mM NaCl (K. pneumoniae [4]): 0.9 µM; MIC 200 mM NaCl (K. pneumoniae [4]): 0.9 µM; K. pneumoniae killed (K. pneumoniae [5]): 99.9% |
| RTKRRIKLIKNGVKKVKDILKNNNIIILPGSNEK [PAM1] | 1.89 | 1.96 | 0.56 | >20 | 0.75 | 0.47 | 0.73 | 0.25 |  |  |
| O=C(N[C@H](CO)[C@H](O)c1ccc([N+](=O)[O-])cc1)C(Cl)Cl [Chloramphenicol] |  |  |  |  |  |  |  |  | 26 | MIC (E. coli DH5α; Escherichia coli): 12.4 µM (≈ 4.01 µg/mL) |
| RRGFWKRLRRRLRRFGDRIRNRFRNFREKLPDPFPG [Ancestral WAM] | 2.06 | 1.56 | 1.42 | 6.45 | 0.41 | 0.96 | 0.68 | 0.07 |  |  |
| CC1(C)S[C@@H]2[C@H](NC(=O)[C@H](N)c3ccccc3)C(=O)N2[C@H]1C(=O)O [Ampicillin] |  |  |  |  |  |  |  |  | 12 | MIC (E. coli DH5α; [7]): 5.7 µM (≈ 1.99 µg/mL) |
| RPWAGNGSVHRYTVLSPRLKTQ [PAM2] | 0.73 | 3.37 | 2.42 | 2.50 | 0.87 | 1.11 | 0.83 | 0.51 |  |  |
| CN(C)[C@@H]1C(O)=C(C(N)=O)C(=O)[C@@]2(O)C(O)=C3C(=O)c4c(O)cccc4[C@@](C)(O)[C@H]3C[C@@H]12 [Tetracycline] |  |  |  |  |  |  |  |  | 10 | MIC (E. coli DH5α; [7]): 4.5 µM (≈ 2 µg/mL) |
| KRGLWESLKRKATKLGDDIRNTLRNFKIKFPVPRQG [WAM2] | 1.29 | 2.14 | 1.39 | 1.47 | 1.46 | 1.58 | 0.39 | 0.63 |  |  |
| CC[C@H](C)[C@H](NC(=O)[C@H](CCCCN)NC(=O)[C@H](CCC(=O)O)NC(=O)[C@H](CCCCN)NC(=O)[C@H](CO)NC(=O)[C@H](CCCCN)NC(=O)[C@H](CCCNC(=N)N)NC(=O)[C@H](Cc1ccccc1)NC(=O)[C@H](Cc1ccccc1)NC(=O)[C@H](CC(=O)O)NC(=O)CNC(=O)[C@H](CC(C)C)NC(=O)[C@@H](N)CC(C)C)C(=O)NCC(=O)N[C@@H](CCCCN)C(=O)N[C@@H](CCC(=O)O)C(=O)N[C@@H](Cc1ccccc1)C(=O)N[C@@H](CCCCN)C(=O)N[C@@H](CCCNC(=N)N)C(=O)N[C@H](C(=O)N[C@H](C(=O)N[C@@H](CCC(N)=O)C(=O)N[C@@H](CCCNC(=N)N)C(=O)N[C@H](C(=O)N[C@@H](CCCCN)C(=O)N[C@@H](CC(=O)O)C(=O)N[C@@H](Cc1ccccc1)C(=O)N[C@@H](CC(C)C)C(=O)N[C@@H](CCCNC(=N)N)C(=O)N[C@@H](CC(N)=O)C(=O)N[C@@H](CC(C)C)C(=O)N[C@H](C(=O)N1CCC[C@H]1C(=O)N[C@@H](CCCNC(=N)N)C(=O)N[C@H](C(=O)N[C@@H](CCC(=O)O)C(=O)N[C@@H](CO)C(=O)O)[C@@H](C)O)C(C)C)[C@@H](C)CC)C(C)C)[C@@H](C)CC [LL37, reference compound] |  |  |  |  |  |  |  |  |  | MIC (B. subtilis; B. subtilis, two-stage radial diffusion, 10 mM sodium phosphate pH 7.4, 37°C): 8.62 µM (≈ 38.7 µg/mL); MIC (C. albicans (ATCC 753); C. albicans (ATCC 753), two-stage radial diffusion, 10 mM sodium phosphate pH 7.4, 37°C): >56 µM; MIC (E. coli DH5α; E. coli DH5α, two-stage radial diffusion, 0.8% agarose, 0.03% TSB, 10 mM sodium phosphate pH 7.4, 37°C, MIC = x intercept of regression line of zone diameters, read-out: MIC): 5.57 µM (≈ 25 µg/mL); MIC ([2]; Sal. enterica (ATCC 14028), two-stage radial diffusion, 10 mM sodium phosphate pH 7.4, 37°C): 4.30 µM (≈ 19.3 µg/mL); MIC ([3]; Strep. pyogenes (ATCC 19615), two-stage radial diffusion, 10 mM sodium phosphate pH 7.4, 37°C): >55 µM; MIC (Strep. uberis; Strep. uberis, two-stage radial diffusion, 10 mM sodium phosphate pH 7.4, 37°C): 2.24 µM (≈ 10.1 µg/mL) |
